Experiments:
[1] = tested on: primary cultured hippocampal neurons; experiment: LC3-eGFP puncta formation assay (autophagy promotion); type: cell-based, rat; conditions: rapamycin and HN-1703 at 0.1 μM and 0.5 μM respectively, 12 hours; FIG. 3A
Method: Primary neurons culture was performed from the hippocampus of rat (SD, Orient Bio) embryonic 16-day (E16) embryos. The left and right hemispheres of the extracted brain were separated using sterile tweezers under a dissecting microscope, the meninges were peeled off, the hippocampus was cut with No. 55 tweezers, and neural progenitor cells were mechanically dissolved in a Ca^2+/Mg^2+-free HBSS (Invitrogen) solution by pipetting with a pasteur pipette (Falcon, 354647). Undissolved tissues or vascular cells were settled, and then a supernatant was taken to measure the cell number and the isolated cells were seeded at 19,000 cells/cm^2 in a 35 mm culture dish coated with poly-L-ornithine (sigma, P3655) and fibronectin (sigma, F4759). The cells were cultured using a serum-free N2 medium (growth medium) added with 10 ng/mL bFGF (Invitrogen) in a 5% CO2 incubator, and the culture medium was replaced after 6 hours and after 24 hours. After 2 days, when the cells proliferated twice or more, subculture was performed.
After 3 days of the primary neural progenitor cell culture, a process of subculturing with 0.05% trypsin was repeated twice, and DNA electroporation or transfection was performed before seeding. […]
The number of cell nuclei labeled with DAPI and the number of cells expressing green fluorescence by overlapping LC3-eGFP expression and DAPI labeling were measured. The number of eGFP-LC3 puncta was measured per cell, and the signal intensity of puncta was measured using a confocal laser microscope program. […]
The autophagy promoting effect of HN-1703 in neurons differentiated by culturing hippocampal neural progenitor cells from rat embryos (E16) was evaluated by performing an LC3-eGFP puncta formation assay. The neural progenitor cells into which an LC3-eGFP recombinant gene was introduced by electroporation were differentiated into neurons, treated with rapamycin and HN-1703 at concentrations of 0.1 μM and 0.5 μM for 12 hours, respectively, and the puncta of LC3-GFP were scanned with a confocal laser microscope (Zeiss, LSM800) to measure the fluorescence intensity of LC3-eGFP and the number of puncta, and the results were illustrated in FIG. 3. Specifically, FIG. 3A illustrates confocal scanning micrographs of LC3-eGFP puncta formation after treated primary cultured hippocampal neurons overexpressing an LC3-eGFP fusion protein with HN-1703, and quantifying the number and fluorescence intensity of LC3-eGFP puncta per cell, and FIG. 3B illustrates a result of LC3-II turnover analysis.

5xFAD transgenic mice = experiment: Morris water maze test; type: in vivo; conditions: 5, 10 and 20 mg/kg groups; similar to the normal group
Method: 5xFAD animals were administered with HN-1703 at three doses for 14 days to male heterozygotes aged 6 months (all born within 3 days). The behaviors of mice were measured in a dark cycle in which the mice were active while alternating light and dark in a 12-hour cycle in a breeding room chamber, and the mice were freely accessible to food and water and bred in compliance with experimental animal ethical guidelines of Kyung Hee University. […] Behavioral measures were measured in Y-maze, Morris Water Maze, and Passive Avoidance test for 18 days in sequence.
A Morris water maze test designed by Richard Morris to test spatial memory was performed on a round and rust-free pool with a white inner-surface (diameter 120 cm; height 60 cm). […] On the first day, the mice were trained in free swimming for 1 minute without a platform foothold, and from the second day, while the mice were trained for 1 minute to find the platform using a spatial clue above the water tank by dissolving dye in water so as not to see the foothold, 6 mice or more were set to a group and put into a quadrant once after taking a sufficient rest, and measured by a video camera. […] The captured video pictures were analyzed with a video tracking system (Ethovision water maze program, Noldus Information Technology, Wageningen, Netherlands). […]

With `COc1cc(OC)c2c(=O)c3cc4c(cc3oc2c1)OCO4` [HN-1703, 7,9-dimethoxy-10H-[1,3]dioxolo[4,5-b]xanthen-10-one] the “increase of the number of LC3-eGFP puncta compared to a control group” value [1] was at least 85%, the “increase of the signal intensity of LC3-eGFP puncta compared to the control group” value [1] was at least 45% and the “water maze latency time after 4 days of training” value (5xFAD transgenic mice) was “about 35 seconds”.

Reference: US12605358B2, “Composition for preventing or treating nervous system diseases comprising compound that inhibits mTOR signaling pathway as active ingredient” (ALIAD BIOPHARMA, priority 2021, dated 2026)
